The values that follow come from PMC6419574 (Bioorganic & Medicinal Chemistry Letters, 2019).

In experiment [1] the target is T1, fascin (Homo sapiens, UniProt Q16658). The experiment is classed as biochemical.
Experiment [2] concerns the target T1, fascin. Nature of the experiment: Isothermal titration calorimetry. The class given is binding. To be noted: 150 µM compound in syringe, 15 µM fascin in cell, Fig. 3B. (ITC needs no label: the signal is the heat of the interaction.)
Experiment [3] deals with T1, fascin. In words: biochemical. To be noted: SPR Kd.
For experiment [4], the target named is T1, fascin. As to conditions: for Ligand efficiency: from SPR Kd.

Take `Cn1cc(NC(=O)c2cn(Cc3ccccc3)c(=O)c3ccccc23)cn1` [Compound 3, 2-benzyl-N-(1-methylpyrazol-4-yl)-1-oxo-isoquinoline-4-carboxamide]: the “inhibition of fascin in the bundling assay (in words)” value (“inhibition of fascin” below) against fascin [1] was “inhibit fascin”. As a reminder, the Kd is the free concentration of one partner at which half of the binding sites on the other are occupied at equilibrium, for simple one-to-one binding. Lower therefore signals a tighter complex. Consider `O=C(Nc1ccncc1)c1cn(Cc2ccc(Cl)c(Cl)c2)c(=O)c2cnn(C3CCNCC3)c12` [Compound 28, 5-(3,4-dichlorobenzyl)-4-oxo-1-(piperidin-4-yl)-N-(pyridin-4-yl)-4,5-dihydro-1H-pyrazolo[4,3-c]pyridine-7-carboxamide], for which the “ITC stoichiometry N” value at fascin [2] was determined as 1.05 ± 0.01. For the same molecule, at fascin [3], the dissociation constant Kd worked out at 85 ± 0.02 nM. This molecule displayed a Ligand efficiency on fascin [4] of 0.29. Consider `O=c1c2cnn(C3CCS(=O)(=O)C3)c2ncn1Cc1ccc(Cl)c(Cl)c1` (stereo not drawn) [Compound 2, 5-(3,4-dichlorobenzyl)-1-(1,1-dioxidotetrahydrothiophen-3-yl)-1,5-dihydro-4H-pyrazolo[3,4-d]pyrimidin-4-one, reference compound], for which, at fascin [1], the “inhibition of fascin” value is “inhibit fascin”. Besides, the “improvement of fascin affinity over truncated compound 25” value on fascin [4] was determined as 23 fold. For the molecule `CC(=O)N(C)c1ccc(Cl)cc1Cl` [Compound 1, N-(2,4-dichlorophenyl)-N-methylacetamide], the “inhibition of fascin” value against fascin [1] was “Unlike compound 1, both 2 and 3 inhibit fascin”. For the same molecule, at fascin [4], the Ligand efficiency worked out at 0.43. For `Cn1cc(NC(=O)c2cn(Cc3ccc(Cl)cc3)c(=O)c3ccccc23)cn1` [Compound 5, 2-(4-chlorobenzyl)-N-(1-methyl-1H-pyrazol-4-yl)-1-oxo-1,2-dihydroisoquinoline-4-carboxamide], the “increase in binding affinity compared to 3” value on fascin [4] (SPR Kd ratio vs compound 3) was “≈ 14 fold”.
